Biological target: T1, human Nav1.7 (Homo sapiens, UniProt Q15858)
T1 construct: expressed in transfected cells
Assay: Assessment of Nav1.7 activity on PatchXpress (voltage dependence / slow inactivation parameters)
Format: cell-based
Details: compound at 10 μM, relative to 0.2% DMSO vehicle control; for hNav1.7: Reduction in current at 20 mV (normalized data) Delta Ratio: before/after 30 sec conditioning pulse at 20 mV; for hNav1.7: Shift in voltage dependence of inactivation (mV) Delta Vhalf: PatchXpress
Method: The generation of a HEK 293F cell line stably expressing human Nav1.7/Navp1 was achieved by co-transfecting human SCN9A and human SCN1B cDNAs, subcloned into plasmid vectors, utilizing standard transfection techniques. Clones were selected using appropriate selection agents (0.3 mg/mL Zeocin and 0.8 mg/mL Geneticin) and maintained in Dulbecco's Modified Eagle medium, 10% fetal bovine serum, 1% non-essential amino acids to ˜80% confluence at 37° C. in a humidified incubator with 95% atmosphere and 5% CO2.
On the day of each experiment, cells that were grown to 80% confluence in a T75 flask were harvested for use on PatchXpress (Molecular Devices, CA, USA). Following a recovery period at 37° C. in a humidified incubator with 95% atmosphere and 5% CO2 in Dulbecco's Modified Eagle Medium, the media was replaced with an external recording solution containing (in mM): 90 TEACI, 50 NaCl, 1.8 CaCl2, 1 MgCl2, 10 HEPES, 10 glucose, adjusted to pH 7.4 with TEAOH and 300 mOsm with sucrose. The internal recording solution contained (in mM): 129 CsF, 2 MgCl2, 11 EGTA, 10 HEPES, 6 NaCl, 3 Na2ATP adjusted to pH 7.2 with CsOH and 280 mOsm with sucrose. The automated liquid handling facility of PatchXpress dispensed cells and added compound. Modulation of Nav1.7 channels by compounds was assessed by promoting the channels into the inactivated state using a conditioning voltage pulse of variable amplitude, followed by a brief hyperpolarizing pulse with a subsequent depolarized voltage step to measure the current amplitude in the presence and absence of compound. Compounds were assayed at 10 μM. Based upon this Patch express protocol, four electrophysiological parameters were measured relative to a 0.2% DMSO vehicle control (Table 2).

T1 sequence (Q15858 whole entry): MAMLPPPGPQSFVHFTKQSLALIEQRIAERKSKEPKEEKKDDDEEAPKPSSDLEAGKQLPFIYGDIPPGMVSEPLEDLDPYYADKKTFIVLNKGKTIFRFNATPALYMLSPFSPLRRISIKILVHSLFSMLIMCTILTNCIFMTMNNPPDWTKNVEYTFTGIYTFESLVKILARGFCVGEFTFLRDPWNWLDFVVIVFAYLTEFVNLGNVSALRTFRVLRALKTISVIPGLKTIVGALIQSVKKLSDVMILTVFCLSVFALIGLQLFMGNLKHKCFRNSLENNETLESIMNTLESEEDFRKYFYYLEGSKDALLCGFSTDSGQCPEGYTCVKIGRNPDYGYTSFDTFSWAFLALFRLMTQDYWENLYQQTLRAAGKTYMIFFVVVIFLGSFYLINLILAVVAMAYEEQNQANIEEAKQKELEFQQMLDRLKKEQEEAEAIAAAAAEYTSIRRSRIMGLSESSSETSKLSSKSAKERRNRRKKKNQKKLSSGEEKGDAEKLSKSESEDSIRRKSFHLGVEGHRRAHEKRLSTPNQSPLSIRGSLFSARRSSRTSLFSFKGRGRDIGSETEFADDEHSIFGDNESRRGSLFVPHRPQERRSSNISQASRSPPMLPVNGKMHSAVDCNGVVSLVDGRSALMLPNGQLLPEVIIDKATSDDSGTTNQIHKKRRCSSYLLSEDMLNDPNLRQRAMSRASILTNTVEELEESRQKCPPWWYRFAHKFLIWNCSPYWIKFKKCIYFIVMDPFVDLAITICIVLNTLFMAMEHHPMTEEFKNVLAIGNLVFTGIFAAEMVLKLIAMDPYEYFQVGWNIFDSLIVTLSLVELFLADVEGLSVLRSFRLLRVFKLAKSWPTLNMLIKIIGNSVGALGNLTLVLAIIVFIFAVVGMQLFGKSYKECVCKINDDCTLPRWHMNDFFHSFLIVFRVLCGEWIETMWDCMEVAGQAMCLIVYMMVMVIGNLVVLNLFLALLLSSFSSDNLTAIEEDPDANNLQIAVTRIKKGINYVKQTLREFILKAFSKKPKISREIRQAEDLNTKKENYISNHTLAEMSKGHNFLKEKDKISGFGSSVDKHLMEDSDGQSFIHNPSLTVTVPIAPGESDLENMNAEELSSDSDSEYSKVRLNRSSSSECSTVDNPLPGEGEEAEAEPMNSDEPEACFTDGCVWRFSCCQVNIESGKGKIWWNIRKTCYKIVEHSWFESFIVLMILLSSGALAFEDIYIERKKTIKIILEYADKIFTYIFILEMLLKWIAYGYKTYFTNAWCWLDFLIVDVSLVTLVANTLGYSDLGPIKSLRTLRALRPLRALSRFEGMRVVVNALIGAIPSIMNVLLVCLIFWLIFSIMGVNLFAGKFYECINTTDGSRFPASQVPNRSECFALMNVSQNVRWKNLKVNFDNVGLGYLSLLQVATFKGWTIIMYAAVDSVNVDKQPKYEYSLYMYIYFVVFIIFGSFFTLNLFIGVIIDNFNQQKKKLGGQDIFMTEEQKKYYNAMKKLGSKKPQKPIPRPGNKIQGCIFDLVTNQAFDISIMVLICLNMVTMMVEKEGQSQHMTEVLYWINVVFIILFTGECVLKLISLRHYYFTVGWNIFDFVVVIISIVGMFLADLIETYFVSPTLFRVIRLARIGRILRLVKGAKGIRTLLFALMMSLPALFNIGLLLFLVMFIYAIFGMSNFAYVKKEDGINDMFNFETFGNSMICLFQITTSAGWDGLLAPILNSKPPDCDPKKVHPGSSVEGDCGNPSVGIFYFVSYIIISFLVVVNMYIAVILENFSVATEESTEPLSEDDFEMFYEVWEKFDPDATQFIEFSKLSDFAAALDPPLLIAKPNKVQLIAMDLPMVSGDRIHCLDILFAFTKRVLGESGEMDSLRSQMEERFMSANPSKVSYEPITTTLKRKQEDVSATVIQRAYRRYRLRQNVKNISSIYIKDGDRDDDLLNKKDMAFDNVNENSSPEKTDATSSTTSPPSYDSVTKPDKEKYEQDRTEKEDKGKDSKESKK
T1 sequence (Q07699 19-218 partner): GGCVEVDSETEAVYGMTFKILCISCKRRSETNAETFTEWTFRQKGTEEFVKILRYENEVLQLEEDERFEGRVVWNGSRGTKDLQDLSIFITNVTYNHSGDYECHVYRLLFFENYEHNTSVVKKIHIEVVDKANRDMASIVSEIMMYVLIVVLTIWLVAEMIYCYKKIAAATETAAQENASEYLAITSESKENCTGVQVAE

SMILES	hNav1.7: Reduction in current at 20 mV (normalized data) Delta Ratio	hNav1.7: Voltage dependence of activation (mV) VDEP	hNav1.7: Voltage dependence of fast inactivation (mV) VDEP	hNav1.7: Shift in voltage dependence of inactivation (mV) Delta Vhalf
Cc1cccc(C)c1OCC(C)NC(=O)[C@H](N)CC(C)C (stereo partly drawn) [Compound 2, (2R)-2-amino-N-(1-(2,6-dimethylphenoxy)propan-2-yl)-4-methylpentanamide]	−0.29	−10.00 mV	−8.20 mV	−32.20 mV
Cc1cccc(C)c1OCC(C)NC(=O)[C@H](N)C(C)C (stereo partly drawn) [Compound 12, (2R)-2-amino-N-(1-(2,6-dimethylphenoxy)propan-2-yl)-3-methylbutanamide]	−0.19	−7.30 mV	−4.30 mV	−25.70 mV
Cc1cccc(C)c1OCC(C)NC(=O)[C@@H]1CCCN1 (stereo partly drawn) [Compound 15, (2S)-N-(1-(2,6-dimethylphenoxy)propan-2-yl)pyrrolidine-2-carboxamide]	−0.16	−6.00 mV	−4.90 mV	−20.60 mV
Cc1cccc(C)c1OCC(C)NC(=O)CN (stereo not drawn) [Compound 17, 2-amino-N-(1-(2,6-dimethylphenoxy)propan-2-yl)acetamide]	−0.10	−5.80 mV	−5.90 mV	−12.40 mV
O=C(NCCOc1cc(F)cc(C(F)(F)F)c1)[C@H]1CCCN1 [Compound 20, (R)-N-(2-(3-fluoro-5-(trifluoromethyl)phenoxy)ethyl) pyrrolidine-2-carboxamide]	−0.01	−6.80 mV	−4.40 mV	−7.20 mV
O=C(NCCOc1cc(F)cc(C(F)(F)F)c1)[C@@H]1CCCN1 [Compound 22, (S)-N-(2-(3-fluoro-5-(trifluoromethyl)phenoxy)ethyl) pyrrolidine-2-carboxamide]	0.06	−6.50 mV	−1.80 mV	−7.00 mV
Cc1cccc(C)c1OCC(C)NC(=O)C(C)(C)CC(=O)N1CCNCC1 (stereo not drawn) [Compound 33, N-(1-(2,6-dimethylphenoxy)propan-2-yl)-2,2-dimethyl-4-oxo-4-(piperazin-1-yl)butanamide]	−0.07	−8.70 mV	−6.00 mV	−5.30 mV
Cc1cccc(C)c1OCC(C)NC(=O)CC(=O)NC1CCNCC1 (stereo not drawn) [Compound 34, N1-(1-(2,6-dimethylphenoxy)propan-2-yl)-N3-(piperidin-4-yl)malonamide]	−0.03	−6.30 mV	−5.10 mV	−2.30 mV
Cc1cccc(C)c1OCC(C)NC(=O)CN1CCNCC1=O (stereo not drawn) [Compound 35, N-(1-(2,6-dimethylphenoxy)propan-2-yl)-2-(2-oxopiperazin-1-yl)acetamide]	−0.06	−7.40 mV	−4.40 mV	−3.00 mV

Further lines, results first:

hNav1.7: Reduction in current at 20 mV (normalized data) Delta Ratio	hNav1.7: Voltage dependence of activation (mV) VDEP	hNav1.7: Voltage dependence of fast inactivation (mV) VDEP	hNav1.7: Shift in voltage dependence of inactivation (mV) Delta Vhalf	SMILES
−0.28	−8.10 mV	−7.40 mV	−28.00 mV	Cc1cccc(C)c1OCC(C)NC(=O)[C@@H](N)CC(C)C (stereo partly drawn) [Compound 3, (2S)-2-amino-N-(1-(2,6-dimethylphenoxy)propan-2-yl)-4-methylpentanamide]
−0.27	−5.80 mV	−11.50 mV	−31.10 mV	CC(C)CC(N)C(=O)N[C@H](COc1cc(C(F)(F)F)cc(C(F)(F)F)c1)c1ccccc1 (stereo partly drawn) [Compound 4, 2-amino-N-((S)-2-(3,5-bis(trifluoromethyl)phenoxy)-1-phenylethyl)-4-methylpentanamide]
−0.26	−4.60 mV	−6.30 mV	−25.20 mV	CC(C)CC(N)C(=O)N[C@H](C)COc1cc(C(F)(F)F)cc(C(F)(F)F)c1 (stereo partly drawn) [Compound 5, 2-amino-N-((R)-1-(3,5-bis(trifluoromethyl)phenoxy)propan-2-yl)-4-methylpentanamide]
−0.24	−8.10 mV	−6.60 mV	−21.40 mV	CC[C@H](C)[C@H](N)C(=O)NCCOc1cc(C(F)(F)F)cc(C(F)(F)F)c1 [Compound 7, (2S,3S)-2-amino-N-(2-(3,5-bis(trifluoromethyl)phenoxy)ethyl)-3-methylpentanamide]
−0.23	−7.80 mV	−6.80 mV	−16.40 mV	N[C@H]1CCCC[C@H]1C(=O)NCCOc1cc(C(F)(F)F)cc(C(F)(F)F)c1 [Compound 8, (1R,2S)-2-amino-N-(2-(3,5-bis(trifluoromethyl)phenoxy)ethyl) cyclohexane-1-carboxamide]
−0.21	−8.10 mV	−7.90 mV	−18.30 mV	N[C@H](C(=O)NCCOc1cc(C(F)(F)F)cc(C(F)(F)F)c1)c1ccccc1 [Compound 9, (S)-2-amino-N-(2-(3,5-bis(trifluoromethyl)phenoxy)ethyl)-2-phenylacetamide]
−0.20	−5.00 mV	−3.90 mV	−19.70 mV	O=C(NCCOc1cc(C(F)(F)F)cc(C(F)(F)F)c1)[C@H]1CCCN1 [Compound 11, (R)-N-(2-(3,5-bis(trifluoromethyl)phenoxy)ethyl) pyrrolidine-2-carboxamide]
−0.17	−5.90 mV	−4.00 mV	−23.80 mV	CN[C@H](CC(C)C)C(=O)NCCOc1cc(C(F)(F)F)cc(C(F)(F)F)c1 [Compound 13, (R)-N-(2-(3,5-bis(trifluoromethyl)phenoxy)ethyl)-4-methyl-2-(methylamino)pentanamide]
−0.17	−4.00 mV	−1.10 mV	−25.30 mV	O=C(NCCOc1cc(C(F)(F)F)cc(C(F)(F)F)c1)C1CCCN1 (stereo not drawn) [Compound 14, N-(2-(3,5-bis(trifluoromethyl)phenoxy)ethyl) pyrrolidine-2-carboxamide]
−0.09	−2.60 mV	−3.90 mV	−11.90 mV	CC(C)C[C@H](N)CC(=O)NCCOc1cc(F)cc(C(F)(F)F)c1 [Compound 18, (S)-3-amino-N-(2-(3-fluoro-5-(trifluoromethyl)phenoxy)ethyl)-5-methylhexanamide]
−0.08	−8.00 mV	−3.50 mV	−10.00 mV	CC[C@@H](C)[C@@H](N)C(=O)NCCOc1cc(F)cc(C(F)(F)F)c1 [Compound 19, (2R,3R)-2-amino-N-(2-(3-fluoro-5-(trifluoromethyl)phenoxy)ethyl)-3-methylpentanamide]
0.00	−5.20 mV	−10.40 mV	−4.20 mV	NC1(C(=O)NCCOc2cc(C(F)(F)F)cc(C(F)(F)F)c2)CC1 [Compound 21, 1-amino-N-(2-(3,5-bis(trifluoromethyl)phenoxy)ethyl) cyclopropane-1-carboxamide]

Reference: patent publication US20170107203A1, “HETEROCYCLIC INHIBITORS OF THE SODIUM CHANNEL” (EPIRUS BIOPHARMACEUTICALS, INC., priority 2014, published 2017)
